One assay deals with Plasmodium yoelii. Description: Antiplasmodial activity against Plasmodium yoelii infected in liver cells assessed as inhibition of proliferation. In kind it is functional, organism-based.
In the next assay the test system is Plasmodium falciparum. The experiment in a line: Antiplasmodial activity against Plasmodium falciparum infected in human blood cells assessed as inhibition of proliferation. The class given is functional, organism-based.

As usually defined, the EC50 is the concentration giving half of the maximal effect.

Regarding `CN(C(=O)c1cn2c(-c3ccc(C(N)=O)cc3)cnc2cn1)c1ccc(F)cc1`, the results for the EC50 in the assay on Plasmodium yoelii and with Plasmodium falciparum were 56 nM and 74 nM, respectively.
As to `CN(Cc1cn2c(-c3ccc(C(N)=O)cc3)cnc2cn1)c1ccc(F)cc1`, the EC50 with Plasmodium yoelii worked out at 7 nM; in the assay with Plasmodium falciparum, 30 nM.
The corresponding values for `CN(Cc1cn2c(-c3ccc(C(N)=O)cc3)cnc2cn1)c1ccc(Cl)cc1` are 11 nM and 9 nM.
`Cc1ccc(N(C)C(=O)c2cn3c(-c4ccc(C(F)(F)F)cc4)cnc3cn2)nc1`: the EC50 worked out at 1110 nM in the assay on Plasmodium yoelii and 199 nM in the assay on Plasmodium falciparum.
